In ChEMBL document CHEMBL1921764, “Substrate profiling of IGF-1R and InsR: identification of a potent pentamer substrate” (Bioorg Med Chem Lett, 2011):
The source made the active and inactive calls. The rule behind the calls is not given here. Peptide text beside a SMILES is read from it.

Tests used:
[1] = target: Insulin receptor (Homo sapiens) (UniProt P06213); experiment: Activity of pre-activated human GST-His6-tagged InsR assessed as compound phosphorylation at 500 uM measured every 2 mins for 60 mins by ADP-Quest assay
Chain of Insulin receptor (Homo sapiens) (P06213 28-758 limits assumed): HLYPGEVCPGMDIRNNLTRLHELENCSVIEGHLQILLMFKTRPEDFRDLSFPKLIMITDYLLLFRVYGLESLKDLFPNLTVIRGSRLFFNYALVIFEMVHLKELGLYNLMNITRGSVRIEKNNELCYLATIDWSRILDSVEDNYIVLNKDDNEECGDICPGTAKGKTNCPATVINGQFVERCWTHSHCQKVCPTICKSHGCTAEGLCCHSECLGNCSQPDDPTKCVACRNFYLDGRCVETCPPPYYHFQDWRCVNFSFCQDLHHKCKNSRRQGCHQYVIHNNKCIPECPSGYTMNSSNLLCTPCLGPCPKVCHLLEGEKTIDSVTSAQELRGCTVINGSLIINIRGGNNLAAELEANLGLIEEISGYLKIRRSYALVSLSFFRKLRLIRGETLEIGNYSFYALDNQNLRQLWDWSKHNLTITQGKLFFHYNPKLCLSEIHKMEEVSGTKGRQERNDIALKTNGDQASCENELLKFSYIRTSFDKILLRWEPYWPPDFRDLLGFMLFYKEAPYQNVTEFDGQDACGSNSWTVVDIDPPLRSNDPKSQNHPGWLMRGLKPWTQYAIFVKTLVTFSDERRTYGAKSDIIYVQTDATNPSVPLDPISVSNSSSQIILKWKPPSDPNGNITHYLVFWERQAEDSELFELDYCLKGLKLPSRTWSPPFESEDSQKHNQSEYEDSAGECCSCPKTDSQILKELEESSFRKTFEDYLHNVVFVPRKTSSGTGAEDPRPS
Chain of Insulin receptor (Homo sapiens) (P06213 763-1382 limits assumed): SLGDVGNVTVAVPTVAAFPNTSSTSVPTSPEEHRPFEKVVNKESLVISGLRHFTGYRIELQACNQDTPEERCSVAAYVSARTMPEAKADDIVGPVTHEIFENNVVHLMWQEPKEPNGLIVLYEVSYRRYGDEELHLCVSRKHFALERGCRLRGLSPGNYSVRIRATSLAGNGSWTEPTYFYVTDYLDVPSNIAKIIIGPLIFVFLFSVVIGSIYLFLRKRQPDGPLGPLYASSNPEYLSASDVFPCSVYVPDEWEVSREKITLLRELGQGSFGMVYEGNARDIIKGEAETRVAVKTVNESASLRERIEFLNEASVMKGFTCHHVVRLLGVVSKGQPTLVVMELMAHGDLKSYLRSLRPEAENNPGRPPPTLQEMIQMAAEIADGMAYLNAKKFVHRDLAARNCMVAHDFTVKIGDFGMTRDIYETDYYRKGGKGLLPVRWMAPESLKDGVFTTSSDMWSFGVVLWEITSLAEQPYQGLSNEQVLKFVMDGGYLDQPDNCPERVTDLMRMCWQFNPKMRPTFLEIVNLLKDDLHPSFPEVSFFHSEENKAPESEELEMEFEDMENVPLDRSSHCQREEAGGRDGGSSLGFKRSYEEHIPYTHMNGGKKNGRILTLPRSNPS

[2] = target: Insulin-like growth factor 1 receptor (Homo sapiens) (UniProt P08069); experiment: Activity of pre-activated human GST-His6-tagged IGF-1R assessed as compound phosphorylation at 500 uM measured every 2 mins for 60 mins by ADP-Quest assay
Chain of Insulin-like growth factor 1 receptor (Homo sapiens) (P08069 31-736 limits assumed): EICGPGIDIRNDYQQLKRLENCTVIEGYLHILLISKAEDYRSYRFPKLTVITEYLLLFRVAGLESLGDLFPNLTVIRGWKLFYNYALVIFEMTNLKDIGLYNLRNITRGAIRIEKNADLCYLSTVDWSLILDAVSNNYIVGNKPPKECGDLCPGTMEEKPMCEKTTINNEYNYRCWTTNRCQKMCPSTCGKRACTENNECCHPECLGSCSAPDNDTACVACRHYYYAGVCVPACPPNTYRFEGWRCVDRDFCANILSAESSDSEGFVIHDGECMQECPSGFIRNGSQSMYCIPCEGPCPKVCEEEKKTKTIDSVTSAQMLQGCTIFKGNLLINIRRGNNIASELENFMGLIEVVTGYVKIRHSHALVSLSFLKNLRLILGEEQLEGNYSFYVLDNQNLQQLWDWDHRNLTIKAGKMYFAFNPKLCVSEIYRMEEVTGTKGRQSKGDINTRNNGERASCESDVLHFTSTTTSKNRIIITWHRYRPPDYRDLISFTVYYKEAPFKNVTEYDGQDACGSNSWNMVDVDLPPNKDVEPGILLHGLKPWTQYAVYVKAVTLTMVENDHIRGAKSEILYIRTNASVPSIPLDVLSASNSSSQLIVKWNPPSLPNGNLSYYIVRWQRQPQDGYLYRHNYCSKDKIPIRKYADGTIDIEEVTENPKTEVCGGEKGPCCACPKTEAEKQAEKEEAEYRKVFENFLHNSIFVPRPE
Chain of Insulin-like growth factor 1 receptor (Homo sapiens) (P08069 741-1367 limits assumed): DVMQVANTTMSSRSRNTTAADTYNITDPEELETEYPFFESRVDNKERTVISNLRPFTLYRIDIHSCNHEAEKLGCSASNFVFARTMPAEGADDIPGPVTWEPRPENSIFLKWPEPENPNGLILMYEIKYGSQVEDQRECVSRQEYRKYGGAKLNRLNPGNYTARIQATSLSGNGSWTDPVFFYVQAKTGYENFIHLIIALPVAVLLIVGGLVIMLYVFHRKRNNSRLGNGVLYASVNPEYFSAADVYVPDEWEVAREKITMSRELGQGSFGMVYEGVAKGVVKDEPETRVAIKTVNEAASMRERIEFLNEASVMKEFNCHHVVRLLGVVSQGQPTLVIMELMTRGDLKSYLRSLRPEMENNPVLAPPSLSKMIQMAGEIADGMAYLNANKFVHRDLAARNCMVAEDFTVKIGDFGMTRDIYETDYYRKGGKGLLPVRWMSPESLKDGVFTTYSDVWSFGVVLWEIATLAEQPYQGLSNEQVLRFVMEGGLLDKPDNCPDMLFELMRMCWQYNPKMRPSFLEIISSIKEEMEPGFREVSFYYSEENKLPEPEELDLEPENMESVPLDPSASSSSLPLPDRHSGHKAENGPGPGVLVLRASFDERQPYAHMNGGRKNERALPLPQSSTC

## H-SPGEYVNIE-OH
[1]
  Activity: inactive
[2]
  Activity: inactive

## H-KKKSPGEYVNAEFG-OH
[1]
  Activity: inactive
[2]
  Activity: inactive

## H-GDYFE-OH
[1]
  Activity: inactive

## H-SPGEYVNI-OH
[1]
  Activity: inactive
[2]
  Activity: inactive

## N[C@@H](Cc1ccc(O)cc1)C(=O)N[C@@H](Cc1ccccc1)C(=O)N[C@@H](CCC(=O)O)C(=O)O (H-Tyr-Phe-Glu-OH)
[1]
  Activity: inactive
[2]
  Activity: inactive

## N[C@@H](CC(=O)O)C(=O)N[C@@H](Cc1ccc(O)cc1)C(=O)N[C@@H](Cc1ccccc1)C(=O)N[C@@H](CCC(=O)O)C(=O)O (H-DYFE-OH)
[1]
  Activity: inactive
[2]
  Activity: inactive

## H-KSPGEYVNIE-OH
[1]
  Activity: inactive
[2]
  Activity: inactive

## H-EQEDEPEGDYFEALE-OH
[1]
  Activity: inactive
[2]
  Activity: inactive

## H-EQEDEPEGAYFEWLE-OH
[1]
  Activity: inactive
[2]
  Activity: inactive

## H-PGEYVN-OH
[1]
  Activity: inactive
[2]
  Activity: inactive

## H-GEYVN-OH
[1]
  Activity: inactive
[2]
  Activity: inactive

## N[C@@H](Cc1ccc(O)cc1)C(=O)N[C@@H](Cc1ccccc1)C(=O)N[C@@H](CCC(=O)O)C(=O)N[C@@H](Cc1c[nH]c2ccccc12)C(=O)O (H-YFEW-OH)
[1]
  Activity: inactive

## H-KKKSPGEYVNIEAG-OH
[1]
  Activity: inactive
[2]
  Activity: inactive

## H-PGEYVNI-OH
[1]
  Activity: inactive
[2]
  Activity: inactive
